Measured values published in US20140086938A1, “METHODS OF INHIBITING TUMOR GROWTH USING TTK ANTAGONISTS” (University Health Network, priority 2007, published 2014).

Legend:
BT474 = experiment: SRB cell viability after siRNA transfection; format: cell-based, human; details: 40 nM siRNA, day 5 post-transfection, normalized over siCONTROL
Description: (§1) Different normal breast and breast cancer cell lines were used for siRNA transfection. Cells were seeded at various concentrations, ranging from 1500 to 6000 per well according to cell growth rate, into 96 well plates. 40 nM individual siRNAs or 40 nM siRNA pool including four individual siRNAs at 10 nM each were transfected into cells using Lipofectamine-2000 24 hrs after cell seeding. Cells were then incubated at 37° C. for five days before cell viability assay were conducted.
(§2) SRB assay was performed to assess cell survival. SRB is a water-soluble dye that binds to the basic amino acids of the cellular proteins. Thus, colorimetric measurement of the bound dye provides an estimate of the total protein mass and is related to the cell number. The cells were fixed in situ by gently aspirating off the culture media and adding 50 μl ice cold 10% Tri-chloroacetic Acid (TCA) per well and incubate at 4° C. for 30-60 min. The plates were washed with tap water five times and allowed to air dry for 5 min. 50 μl of 0.4% (w/v) Sulforhodamine B solution in 1% (v/v) acetic acid was added per well and incubated for 30 min at RT for staining. Following staining, plates were washed four times with 1% acetic acid to remove any unbound dye and then allowed to air dry for 5 min. The stain was solubilized with 100 μl of 10 mM Tris pH 10.5 per well. Absorbance was read at 570 mn. The cell survival percentage after each siRNA(s) knock down was calculated over the non-silencing control siCTRL or siPOOL as well as siTOX as a transfection efficiency control.
(§3) To assess the effects of TTK knockdown on the viability of breast cancer cells, various breast cancer cell lines were transfected with each of the four TTK-targeting siRNAs individually, the pooled siRNA containing all four of the TTK-targeting siRNAs, or the siCONTROL siRNA, all at a concentration of 40 nM. At day 5 post-transfection, the viability of the cells was determined using the SRB assay described herein.

CAMA-1 = experiment: SRB cell viability after siRNA transfection; format: cell-based, human; details: 40 nM siRNA, day 5 post-transfection, normalized over siCONTROL
Description: as §1, §2, §3

HCC1419 = experiment: SRB cell viability after siRNA transfection; format: cell-based, human; details: 40 nM siRNA, day 5 post-transfection, normalized over siCONTROL
Description: as §1, §2, §3

Hs578T = experiment: SRB cell viability after siRNA transfection; format: cell-based, human; details: 40 nM siRNA, day 5 post-transfection, normalized over siCONTROL
Description: as §1, §2, §3

MCF-7 = experiment: SRB cell viability after siRNA transfection; format: cell-based, human; details: 40 nM siRNA, day 5 post-transfection, normalized over siCONTROL
Description: as §1, §2, §3

MDA-MB-231 = experiment: SRB cell viability after siRNA transfection; format: cell-based, human; details: 40 nM siRNA, day 5 post-transfection, normalized over siCONTROL
Description: as §1, §2, §3

MDA-MB-330 = experiment: SRB cell viability after siRNA transfection; format: cell-based, human; details: 40 nM siRNA, day 5 post-transfection, normalized over siCONTROL
Description: as §1, §2, §3

MDA-MB-435 = experiment: SRB cell viability after siRNA transfection; format: cell-based, human; details: 40 nM siRNA, day 5 post-transfection, normalized over siCONTROL
Description: as §1, §2, §3

MDA-MB-453 = experiment: SRB cell viability after siRNA transfection; format: cell-based, human; details: 40 nM siRNA, day 5 post-transfection, normalized over siCONTROL
Description: as §1, §2, §3

MDA-MB-468 = experiment: SRB cell viability after siRNA transfection; format: cell-based, human; details: 40 nM siRNA, day 5 post-transfection, normalized over siCONTROL
Description: as §1, §2, §3

SKBr-3 = experiment: SRB cell viability after siRNA transfection; format: cell-based, human; details: 40 nM siRNA, day 5 post-transfection, normalized over siCONTROL
Description: as §1, §2, §3

T47D = experiment: SRB cell viability after siRNA transfection; format: cell-based, human; details: 40 nM siRNA, day 5 post-transfection, normalized over siCONTROL
Description: as §1, §2, §3

184A1 (Normal) = experiment: Cell cycle profile by flow cytometry after siRNA transfection; format: cell-based, human; details: 40 nM siRNA, day 3 post-transfection; for <G1: siCONTROL (Neg. Control) 1.03; for G2/M: siCONTROL (Neg. Control) 10.35
Description: (§4) To assess the effects of TTK knockdown on the physiology of normal breast and breast cancer cell lines, luminal (MCF7) or basal-like (MDA-MB-435, MDA-MB-468) breast cancer cell lines, a lung cancer cell line (A549) and a normal breast cell line (184A1) each were transfected with 40 nM of TTK-targeting siRNA #2, siRNA #3, the pooled siRNA containing all four of the TTK-targeting siRNAs, or the siCONTROL siRNA. At day 3 post-transfection, the cell cycle profile of the transfected cells was analyzed by flow cytometry to determine the effects of TTK knockdown on cell cycle arrest and cell death. Depletion of TTK in cells transfected with TTK-targeting siRNAs caused significant cell cycle arrest and cell death.

A549 (Lung) = experiment: as above; format: cell-based, human; details: 40 nM siRNA, day 3 post-transfection; for <G1: siCONTROL (Neg. Control) 0.84; for G2/M: siCONTROL (Neg. Control) 10.57
Description: as §4

MCF-7 (Luminal) = experiment: as above; format: cell-based, human; details: for apoptosis, indicated by increased G2/M and <G1 populations: MCF7 breast cancer cells, flow cytometry, vs siCONTROL; for <G1 / G2/M: MCF-7, 40 nM siRNA, day 3 post-transfection; for <G1: siCONTROL (Neg. Control) 2.11; for G2/M: siCONTROL (Neg. Control) 16.17
Description: as §4

MDA-MB-435 (Basal) = experiment: as above; format: cell-based, human; details: 40 nM siRNA, day 3 post-transfection; for <G1: siCONTROL (Neg. Control) 0.85; for G2/M: siCONTROL (Neg. Control) 18.77
Description: as §4

MDA-MB-468 (Basal) = experiment: as above; format: cell-based, human; details: 40 nM siRNA, day 3 post-transfection; for <G1: siCONTROL (Neg. Control) 4.09; for G2/M: siCONTROL (Neg. Control) 20.59
Description: as §4

[1] = test system: T-47D breast cancer cells; experiment: Colony formation in soft agar after siRNA transfection; format: cell-based, human; details: 40 nM siRNA, relative to siCONTROL, two independent experiments
Description: Cells were transfected with 40 nM individual siRNAs, 40 nM siRNA pool including four individual siRNAs at 10 nM each or 40 nM non-silencing control siCONTROL using Lipofectamine 2000 Transfection Reagent (Invitrogen Corporation), mixed with culture medium containing 0.7% agar in 6-well plates and cultured at 37° C. After 2 weeks, the top layer of the culture was stained with 0.2% p-iodonitrotetrazolium violet and colonies were counted using a Sorcerer Colony Counter (Optomax).
To determine the effects of siRNA-mediated knockdown of TTK gene expression on anchorage-independent cell growth in breast cancer cells, T-47D breast cancer cell line was transfected with either the siRNA#2 or siRNA#3 TTK-targeting siRNA, the siRNA POOL containing 4 TTK-targeting siRNAs or the siCONTROL non-targeting siRNA. Following transfection colony formation in soft agar was assessed.

tumors = details: TNP-470 below maximum tolerated dose with cyclophophamide 170 mg/kg, every 6 days; cited from earlier work

| Compound | % survival (BT474) | % survival (CAMA-1) | % survival (HCC1419) | % survival (Hs578T) | % survival (MCF-7) | % survival (MDA-MB-231) | % survival (MDA-MB-330) | % survival (MDA-MB-435) | % survival (MDA-MB-453) | % survival (MDA-MB-468) | % survival (SKBr-3) | % survival (T47D) | <G1 (184A1 (Normal)) | G2/M (184A1 (Normal)) | <G1 (A549 (Lung)) | G2/M (A549 (Lung)) | apoptosis, indicated by increased G2/M and <G1 populations (MCF-7 (Luminal)) | <G1 (MCF-7 (Luminal)) | G2/M (MCF-7 (Luminal)) | <G1 (MDA-MB-435 (Basal)) | further results |
| --- | --- | --- | --- | --- | --- | --- | --- | --- | --- | --- | --- | --- | --- | --- | --- | --- | --- | --- | --- | --- | --- |
| siRNA #2: siRNA targeting human TTK: 5′-GGUAUUAACUGCCCAAGAA-3′ (SEQ ID NO: 4) (listed as RNA, chemistry not given here) | 0.66% | 0.30% | 0.75% | 1.25% | 0.27% | −0.09% | 0.38% | 0.25% | −0.04% | 0.00% | 0.34% | 0.44% | 5.35 | 27.75 | 6.03 | 20.58 | caused apoptosis of the cancer cells | 12.03 | 25.18 | 4.69 | G2/M (MDA-MB-435 (Basal)): 19.89; <G1 (MDA-MB-468 (Basal)): 15.10; G2/M (MDA-MB-468 (Basal)): 15.72; colonies formed in soft agar (number and size) [1]: reduction in the number of colonies; colonies formed in soft agar (number and size) ([1]; listed as siRNA#2): reduction in both colony size and number |
| siRNA #1: siRNA targeting human TTK: 5′-GCAAUACCUUGGAUGAUUA-3′ (SEQ ID NO: 3) (listed as RNA, chemistry not given here) | 0.64% | 0.46% | 0.91% | 1.02% | 0.27% | 0.21% | 0.31% | 0.78% | 0.33% | 0.69% | 0.32% | 0.62% | – | – | – | – | – | – | – | – | – |
| siRNA #3: siRNA targeting human TTK: 5′-GCACGUGACUACUUUCAAA-3′ (SEQ ID NO: 5) (listed as RNA, chemistry not given here) | 0.83% | 0.52% | 0.91% | 0.53% | 0.23% | 0.23% | 0.63% | 0.60% | 0.18% | 0.27% | 0.49% | 0.74% | 3.92 | 17.49 | 11.38 | 24.87 | caused apoptosis of the cancer cells | 5.61 | 65.23 | 2.66 | G2/M (MDA-MB-435 (Basal)): 40.08; <G1 (MDA-MB-468 (Basal)): 11.12; G2/M (MDA-MB-468 (Basal)): 28.41; colonies formed in soft agar (number and size) [1]: reduction in the number of colonies; colonies formed in soft agar (number and size) ([1]; listed as siRNA#3): reduction in both colony size and number |
| siRNA #4: siRNA targeting human TTK: 5′-GAUAAGAUCAUCCGACUUU-3′ (SEQ ID NO: 6) (listed as RNA, chemistry not given here) | 0.90% | 0.77% | 1.05% | 1.16% | 0.63% | 0.58% | 0.72% | 0.93% | 0.56% | 1.46% | 0.91% | 1.19% | – | – | – | – | – | – | – | – | – |
| CO[C@@H]1[C@H](OC(=O)NC(=O)CCl)CC[C@]2(CO2)[C@H]1[C@@]1(C)O[C@@H]1CC=C(C)C [TNP-470] | – | – | – | – | – | – | – | – | – | – | – | – | – | – | – | – | – | – | – | – | tumor response (tumors): complete regression of the tumors |
